Experiments:
Test in all cases: RP-HPLC product detection, […] nm
Format in all cases: biochemical
LA2528 = target: T1, LA2528 (Leptospira interrogans, UniProt Q8F383); settings: 100 uM GTP; pH 7.8; 10 mM MgCl2; 28 C, 1 h; product c-di-GMP
T1 construct: gene pleD; full-length REC-GGDEF protein, pET-28a or pET-32a, E. coli BL21(DE3), Ni-NTA

LA1483 = target: T2, LA1483 (Leptospira interrogans, UniProt Q8F629); settings: 100 uM GTP; pH 7.8; 10 mM MgCl2; 28 C, 1 h; product c-di-GMP
T2 construct: gene LA_1483; full-length GAF-GGDEF protein, pET-28a or pET-32a, E. coli BL21(DE3), Ni-NTA

LA2383 = target: T3, LA2383 (Leptospira interrogans, UniProt Q8F3L8); settings: 10 uM substrate; pH 8.5; 5 mM MgCl2; 10 mM MnCl2; 28 C, 1 h
T3 construct: gene LA_2383; HD-GYP protein lacking the conserved HD residues, pET-28a or pET-32a, E. coli BL21(DE3), Ni-NTA
T3 sequence (Q8F3L8 entry or part of it): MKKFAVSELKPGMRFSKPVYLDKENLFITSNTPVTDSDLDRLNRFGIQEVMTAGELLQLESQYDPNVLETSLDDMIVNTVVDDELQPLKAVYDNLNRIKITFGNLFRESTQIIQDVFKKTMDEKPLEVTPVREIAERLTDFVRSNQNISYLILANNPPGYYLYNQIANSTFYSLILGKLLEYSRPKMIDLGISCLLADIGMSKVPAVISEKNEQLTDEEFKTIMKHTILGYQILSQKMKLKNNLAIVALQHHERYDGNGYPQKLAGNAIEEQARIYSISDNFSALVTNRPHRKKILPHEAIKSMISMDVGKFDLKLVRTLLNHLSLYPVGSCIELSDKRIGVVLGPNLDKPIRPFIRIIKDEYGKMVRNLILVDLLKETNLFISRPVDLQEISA

T1 sequence (Q8F383 entry or part of it): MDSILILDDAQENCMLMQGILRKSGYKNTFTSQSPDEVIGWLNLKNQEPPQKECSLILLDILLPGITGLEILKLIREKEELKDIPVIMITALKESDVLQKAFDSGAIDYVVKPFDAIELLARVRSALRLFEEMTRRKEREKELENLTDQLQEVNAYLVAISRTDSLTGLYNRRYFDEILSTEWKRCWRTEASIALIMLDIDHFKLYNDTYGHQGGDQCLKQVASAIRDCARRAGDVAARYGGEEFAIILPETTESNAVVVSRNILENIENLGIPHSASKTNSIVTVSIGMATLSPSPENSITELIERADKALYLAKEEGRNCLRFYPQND
T2 sequence (Q8F629 entry or part of it): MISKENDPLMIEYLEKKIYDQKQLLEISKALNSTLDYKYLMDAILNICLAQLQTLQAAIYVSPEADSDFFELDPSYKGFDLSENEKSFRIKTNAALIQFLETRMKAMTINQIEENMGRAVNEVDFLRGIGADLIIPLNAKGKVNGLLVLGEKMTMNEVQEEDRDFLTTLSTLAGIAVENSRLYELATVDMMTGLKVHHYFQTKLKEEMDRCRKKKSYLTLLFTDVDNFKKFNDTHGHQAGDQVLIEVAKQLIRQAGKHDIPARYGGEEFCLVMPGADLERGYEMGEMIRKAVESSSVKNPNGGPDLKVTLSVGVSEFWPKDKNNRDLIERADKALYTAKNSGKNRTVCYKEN

Row | SMILES | RP-HPLC product detection, 254 nm (LA2528) | RP-HPLC product detection, 254 nm (LA1483) | RP-HPLC product detection, 254 nm (LA2383)
1 | Nc1nc2c(ncn2[C@@H]2O[C@H](COP(=O)(O)OP(=O)(O)OP(=O)(O)O)[C@@H](O)[C@H]2O)c(=O)[nH]1 [GTP] | they are able to utilize GTP to produce c-di-GMP | they are able to utilize GTP to produce c-di-GMP | 
2 | Nc1nc2c(ncn2[C@@H]2O[C@@H]3COP(=O)(O)O[C@H]4[C@@H](O)[C@H](n5cnc6c(=O)[nH]c(N)nc65)O[C@@H]4COP(=O)(O)O[C@H]3[C@H]2O)c(=O)[nH]1 [c-di-GMP] |  |  | LA2383 was able to hydrolyze both c-di-GMP and pGpG in vitro and produce GMP
3 | Nc1nc2c(ncn2[C@@H]2O[C@H](COP(=O)(O)O[C@H]3[C@@H](O)[C@H](n4cnc5c(=O)[nH]c(N)nc54)O[C@@H]3COP(=O)(O)O)[C@@H](O)[C@H]2O)c(=O)[nH]1 [pGpG] |  |  | LA2383 was able to hydrolyze both c-di-GMP and pGpG in vitro and produce GMP
